The text below walks through data of publication PMC4107925, “Diverse modes of binding in structures of Leishmania major N-myristoyltransferase with selective inhibitors” (IUCrJ, 2014).

“And” between values parts separate entries of the source, which are not always exact repeats. Equal entries are not always repeated.

One experiment addresses LmNMT (Leishmania major, UniProt Q4Q5S8). As to the kind of experiment: biochemical. The note with it: read-out: IC50 LmNMT.
The target in a further experiment is T1, HsNMT1 (Homo sapiens, UniProt P30419).
T1 sequence (P30419 1-496): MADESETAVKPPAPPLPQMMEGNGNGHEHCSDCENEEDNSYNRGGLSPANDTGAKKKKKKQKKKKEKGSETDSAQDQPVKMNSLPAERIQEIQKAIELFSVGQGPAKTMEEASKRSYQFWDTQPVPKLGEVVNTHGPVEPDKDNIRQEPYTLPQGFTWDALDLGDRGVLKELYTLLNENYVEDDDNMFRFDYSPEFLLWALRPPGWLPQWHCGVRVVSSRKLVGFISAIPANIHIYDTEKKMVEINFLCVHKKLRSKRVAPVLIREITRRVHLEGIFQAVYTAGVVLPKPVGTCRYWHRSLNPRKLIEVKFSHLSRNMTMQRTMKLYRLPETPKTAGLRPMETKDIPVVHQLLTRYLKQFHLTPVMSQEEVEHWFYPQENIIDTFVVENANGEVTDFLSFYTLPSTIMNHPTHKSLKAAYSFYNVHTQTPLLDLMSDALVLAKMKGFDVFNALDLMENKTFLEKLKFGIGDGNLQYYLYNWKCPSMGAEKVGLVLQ
Nature of the experiment: NMT enzyme inhibition assay (non-radioactive), human NMT. In kind it is biochemical. The note with it: for selectivity factor: LdNMT IC50 versus human enzyme IC50; for IC50: human NMT isoform 1 (HsNMT1), read-out: IC50 HsNMT.

The target of a further experiment is T2, LdNMT (Leishmania donovani, UniProt D0AB09).
T2 sequence (D0AB09 1-421): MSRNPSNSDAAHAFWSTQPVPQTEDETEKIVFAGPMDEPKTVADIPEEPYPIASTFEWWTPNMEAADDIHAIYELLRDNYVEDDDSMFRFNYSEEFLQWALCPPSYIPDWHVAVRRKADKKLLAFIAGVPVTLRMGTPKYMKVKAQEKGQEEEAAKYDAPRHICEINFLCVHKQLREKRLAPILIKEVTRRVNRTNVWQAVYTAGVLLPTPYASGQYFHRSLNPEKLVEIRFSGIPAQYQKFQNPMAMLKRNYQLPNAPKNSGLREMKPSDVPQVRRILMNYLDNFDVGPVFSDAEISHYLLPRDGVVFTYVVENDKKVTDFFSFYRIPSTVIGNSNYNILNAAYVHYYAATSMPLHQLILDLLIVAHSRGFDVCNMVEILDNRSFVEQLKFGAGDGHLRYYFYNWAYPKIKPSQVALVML
As to the kind of experiment: NMT enzyme inhibition assay (non-radioactive), L. donovani NMT. In kind it is biochemical. The conditions noted are these: for LE (ligand efficiency): LE = 1.4(-logLdNMT IC50)/N, N = number of non-H atoms; for IC50: read-out: IC50 LdNMT.

LmNMT, sequence (Q4Q5S8 5-421 limits assumed): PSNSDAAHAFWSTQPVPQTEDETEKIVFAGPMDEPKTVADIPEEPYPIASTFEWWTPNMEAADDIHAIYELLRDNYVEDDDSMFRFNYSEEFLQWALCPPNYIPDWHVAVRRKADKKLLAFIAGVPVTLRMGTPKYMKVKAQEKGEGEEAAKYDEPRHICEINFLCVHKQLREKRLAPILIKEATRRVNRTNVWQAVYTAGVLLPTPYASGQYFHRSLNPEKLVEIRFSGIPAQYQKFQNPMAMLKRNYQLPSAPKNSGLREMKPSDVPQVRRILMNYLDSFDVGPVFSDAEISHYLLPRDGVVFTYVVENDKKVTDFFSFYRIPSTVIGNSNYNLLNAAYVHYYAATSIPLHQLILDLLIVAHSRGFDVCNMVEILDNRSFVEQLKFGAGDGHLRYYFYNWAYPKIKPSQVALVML

What is called IC50 is the concentration at which inhibition is half-maximal. For the molecule `c1cncc(CCNCc2cccc(-c3cccc(CN4CCc5ncsc5C4)c3)c2)c1` [CWZ], the IC50 on LmNMT is 1020 ± 100 nM. Besides, on HsNMT1, the selectivity factor amounted to 50; the IC50 is 45000 nM and 45500 nM. Also, at LdNMT, the “LE (ligand efficiency)” value stood at 0.29; the IC50 was 900 nM and 914 nM.
On to `N[C@@H](CC(=O)N1C[C@H](CO)[C@@H](c2ccc(Cl)cc2)C1)Cc1ccc(Cl)cc1` [A6K], for which the concentration for half-maximal inhibition (IC50) is 31 ± 4 nM on LmNMT; 5000 nM and 5160 nM on HsNMT1; 77 ± 7 nM at LdNMT. Also, the selectivity factor on HsNMT1 is on record as about 80. Moreover, the “LE (ligand efficiency)” value at LdNMT came to 0.35.
As to `CN1CCC(N(C)c2nc(N(C)CCC#N)c3sccc3n2)CC1` [6KV], the IC50 is 299 ± 89 nM at LmNMT; 3560 ± 490 nM at HsNMT1; 250 nM and 247 nM on LdNMT. For the same molecule, the “selectivity against HsNMT1” value at HsNMT1 (LdNMT over HsNMT1) is “approximately tenfold”. Besides, on LdNMT, the “LE (ligand efficiency)” value is 0.34.
